The target in assay [1] is T1, CCK-A receptor (Pancreas) (Rattus norvegicus, UniProt P30551).
T1 construct: Whole pancreas was removed from male Wister rats; from tissue; host or cells: rat pancreas membranes (male Wistar rats)
T1 sequence (P30551 1-444): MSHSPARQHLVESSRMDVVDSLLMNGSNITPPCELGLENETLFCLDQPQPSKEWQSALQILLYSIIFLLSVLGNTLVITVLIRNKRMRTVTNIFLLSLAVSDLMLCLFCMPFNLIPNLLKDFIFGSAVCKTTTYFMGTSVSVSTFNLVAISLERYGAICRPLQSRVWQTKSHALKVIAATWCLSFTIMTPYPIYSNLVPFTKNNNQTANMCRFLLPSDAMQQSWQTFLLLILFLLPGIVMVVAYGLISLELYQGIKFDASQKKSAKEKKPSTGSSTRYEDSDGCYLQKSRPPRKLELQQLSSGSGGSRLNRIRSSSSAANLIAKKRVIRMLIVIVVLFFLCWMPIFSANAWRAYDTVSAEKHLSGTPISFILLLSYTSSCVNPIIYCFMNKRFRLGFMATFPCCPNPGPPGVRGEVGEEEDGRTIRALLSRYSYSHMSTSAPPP
The assay can be described thus: Binding to CCK receptor, pancreas membranes, inhibition of 125I-CCK-8 specific binding. How it is done:
(§1) Whole pancreas was removed from male Wister rats. Fat tissue was removed and the pancreas was homogenized (Blinkman Polytron PT20) in 10 mM MES buffer (0.02% Bacitracin, 0.02% soy bean-derived trypsin inhibitor, 0.0001% phenylmethanesulfonyl fluoride, pH 6.5). The homogenate was passed through a nylon cloth (120 mesh) and the filtrate was centrifuged at 40,000×g for 15 minutes. The obtained sediment was homogenized in Tris buffer and centrifuged in the same manner as above. The sediment was suspended in a buffer for binding assay (50 mM MES containing 130 mM sodium chloride, 4.7 mM potassium chloride, 5 mM magnesium chloride, 0.02% Bacitracin, 0.0001% phenylmethanesulfonyl fluoride, pH 6.5) and used as a peripheral receptor source. In the case of central tissue, rat cerebral cortex was used for the preparation by suspending same in a buffer (pH 6.5) containing 5 mM magnesium chloride, 1 mM EGTA [ethylene glycol bis(2-aminoethylether)tetraacetic acid], 360 mM sodium chloride, 15 mM potassium chloride, 20 mM HEPES (N-2-hydroxyethylpiperazine-N'-2-ethanesulfonic acid) and 0.25 mg/ml Bacitracin. For binding assay, 50 μl buffer (for total binding use) and unlabelled CCK-8 sulfate (for non-specific binding) having a final concentration of 1 μM or a test compound (^125 I-CCK-8, 63-67 TBq/mmol, 40,000-50,000 cpm, 50 μl) were added to a membrane suspension (450 μl, containing 100 μg as protein). The reaction mixture was incubated at 20° C. for 30 minutes and filtered through a glass fiber filter (Whatman G/FB) by suction. Immediately thereafter, the filter was washed three times with ice-cold Tris buffer (2.5 ml) and the radioactivity on the filter was determined.
(§2) The effects of the test compound on the CCK receptor binding were evaluated by the concentration (IC50, nM) necessary for inhibiting the specific binding by 50%, which was obtained by calculating the inhibition ratio by the following formula: [formula]
(§3) The results of the effects of the test compounds on the CCK receptor binding are shown in the following

For a further assay, the target named is T2, CCK-B receptor (Brain) (Rattus norvegicus, UniProt P30553).
T2 construct: from tissue; host or cells: rat cerebral cortex membranes
T2 sequence (P30553 1-452): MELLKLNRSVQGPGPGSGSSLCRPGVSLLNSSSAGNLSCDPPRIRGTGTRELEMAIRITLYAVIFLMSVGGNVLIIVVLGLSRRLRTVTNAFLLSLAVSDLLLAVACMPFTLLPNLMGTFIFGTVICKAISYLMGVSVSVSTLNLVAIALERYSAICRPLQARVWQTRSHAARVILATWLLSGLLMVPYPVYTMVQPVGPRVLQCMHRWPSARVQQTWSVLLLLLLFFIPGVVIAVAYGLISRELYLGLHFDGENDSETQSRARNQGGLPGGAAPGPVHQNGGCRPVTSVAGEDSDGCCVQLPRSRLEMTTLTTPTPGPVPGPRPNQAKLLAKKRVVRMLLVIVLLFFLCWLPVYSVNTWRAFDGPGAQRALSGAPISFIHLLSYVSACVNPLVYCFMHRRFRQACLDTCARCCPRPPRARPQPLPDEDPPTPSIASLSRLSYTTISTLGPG
Briefly: Binding to CCK receptor, cerebral cortex membranes, inhibition of 125I-CCK-8 specific binding. The conditions noted are these: pH 6.5, 20° C., 30 minutes. How it is done:
as §1, §2, §3

The subject of assay [2] is CCK-8-induced secretion of pancreatic juice (trypsin secretion). The assay can be described thus: Effects on CCK-induced secretion of pancreatic juice in guinea pig under anesthesia. The assay is classed as in vivo. To be noted: 300 μg/kg intravenous, 5 minutes before second CCK-8 (0.1 μg/kg i.v.); male guinea pigs under urethane anesthesia. How it is done:
Effects on CCK-induced secretion of pancreatic juice in guinea pig under anesthesia
Male guinea pigs weighing about 650 g were anesthetized by subcutaneous administration of urethane (1.6 g/kg), and a cannula for injection of perfusing solution was inserted into the pyloric part of stomach and a discharge cannula was inserted at a position 2 cm distal from Treitz ligament. Duodenum was perfused with physiological saline at a rate of 8 ml/15 min, and trypsin secretion in the perfusate was determined. For the determination, Na-benzoyl-arginine p-nitroanilide (BAPNA) was used as a synthetic substrate and spectrophotometer was used for the determination. Secretion of pancreatic juice was induced by an intravenous administration of CCK-8 (0.1 μg/kg), and 60 minutes later, CCK-8 was administered again. The inhibition ratio of the test compound which was intravenously administered at 5 minutes before the second administration of CCK-8 was calculated by the following formula: [formula]
The effects of the test compounds on inhibition of secretion of pancreatic juice induced by CCK receptor in guinea pig under anesthesia are shown in the following

Where [3] appears, read: rat pancreas membranes, 125I-CCK-8, pH 6.5, 20° C., 30 minutes, read-out: Pancreas (CCK-A) IC50.

As a reminder, the IC50 is the midpoint of a concentration-inhibition curve.

Like-named read-outs stand apart in the source and are kept apart here.

Consider `CCc1cc2c(s1)-n1c(nnc1[C@@H](CCC(=O)O)NC(=O)c1ccc(Cl)c(Cl)c1)CN=C2c1ccccc1Cl` [Example 277, (R)-(-)-4-(3,4-dichlorobenzoylamino)-4-(4-(2-chlorophenyl)-2-ethyl-6H-thieno[3,2-f] [1,2,4]triazolo[4,3-a] [1,4]diazepin-9-yl)butanoic acid], for which the results for the IC50 (in assay [1]; at CCK-B receptor (Brain)) were 9.6 nM and over 1000 nM, respectively. The “Inhibition of CCK-8-induced secretion of pancreatic juice” value (“Inhibition” below) in assay [2] came to 85.1 ± 12.1%.

With `CCc1cc(C(=O)c2ccccc2Cl)c(-n2c(C)nnc2CNC(=O)Nc2cccc(C)c2)s1` [Example 26, N-(4-(3-(2-chlorobenzoyl)-5-ethylthiophen-2-yl)-5-methyl[1,2,4]triazol-3-ylmethyl)-N'-(3-methylphenyl)urea], the results for the concentration for half-maximal inhibition (IC50) (in assay [1] (setting [3]); on CCK-B receptor (Brain)) were 5.6 nM and over 1000 nM, respectively.

`CCc1cc(C(=O)c2ccccc2Cl)c(-n2c(C)nnc2CNC(=O)c2cc3ccccc3n2CC(=O)O)s1` [Example 19, 2-(4-(3-(2-chlorobenzoyl)-5-ethylthiophen-2-yl)-5-methyl[1,2,4]triazol-3-ylmethylcarbamoyl)indole-1-acetic acid]: the values for the IC50 (in assay [1] (setting [3]); at CCK-B receptor (Brain)) were 10.6 nM and over 1000 nM, respectively. Also, the “Inhibition” value in assay [2] was determined as 81.9 ± 5.9%.

With `CCc1cc(C(=O)c2ccccc2Cl)c(-n2c(Br)nnc2CNC(=O)c2cc3ccccc3[nH]2)s1` [Example 72, N-(3-bromo-4-(3-(2-chlorobenzoyl)-5-ethylthiophen-2-yl) [1,2,4]triazol-5-ylmethyl)indole-2-carboxamide], the results for the half-maximal inhibitory concentration (IC50) (in assay [1] (setting [3]); on CCK-B receptor (Brain)) were 3.2 nM and over 1000 nM, respectively.

For `CCc1cc2c(s1)-n1c(nnc1[C@@H](CCC(=O)O)NC(=O)c1cc3ccccc3[nH]1)CN=C2c1ccccc1Cl` [Example 280, (R)-(-)-4-(4-(2-chlorophenyl)-2-ethyl-6H-thieno[3,2-f] [1,2,4]triazolo[4,3-a] [1,4]diazepin-9-yl)-4-(1H-indole-2-carboxamide)butanoic acid], the IC50 in assay [1] was 2.7 nM; at CCK-B receptor (Brain), over 1000 nM. Moreover, the “Inhibition” value in assay [2] worked out at 78.1 ± 7.6%.

Turning to `CCc1cc(C(=O)c2ccccc2Cl)c(-n2c(C)nnc2CNC(=O)Nc2cccc(OC)c2)s1` [Example 27, N-(4-(3-(2-chlorobenzoyl)-5-ethylthiophen-2-yl)-5-methyl[1,2,4]triazol-3-ylmethyl)-N'-(3-methoxyphenyl)urea], the concentration for half-maximal inhibition (IC50) in assay [1] (setting [3]) was 4.8 nM; at CCK-B receptor (Brain) it was over 1000 nM.

As to `Cc1nnc(CNC(=O)c2cc3ccccc3[nH]2)n1-c1sc(C(=O)O)cc1C(=O)c1ccccc1Cl` [Example 252, (3-(2-chlorobenzoyl)-2-(3-(2-indolecarbonylaminomethyl)-5-methyl[1,2,4]triazol-4-yl)thiophen-5-yl)carboxylic acid], the half-inhibitory concentration (IC50) in assay [1] (setting [3]) was 6.6 nM; on CCK-B receptor (Brain) it was over 1000 nM. In addition, in assay [2], the “Inhibition” value came out at 82.6 ± 2.6%.

For `CCc1cc2c(s1)-n1c(nnc1CNC(=O)c1ccc(Cl)c(Cl)c1)CN=C2c1ccccc1Cl` [Example 59, N-(4-(2-chlorophenyl)-2-ethyl-6H-thieno[3,2-f] [1,2,4]triazolo[4,3-a] [1,4]diazepin-9-ylmethyl)-3,4-dichlorobenzamide], the figures for the half-maximal inhibitory concentration (IC50) (in assay [1]; at CCK-B receptor (Brain)) were 13 nM and over 1000 nM, respectively.

With `CCc1cc(C(=O)c2ccccc2Cl)c(-n2c(C)nnc2CNC(=O)c2ccc(Cl)c(Cl)c2)s1` [Example 11, N-(4-(3-(2-chlorobenzoyl)-5-ethylthiophen-2-yl)-5-methyl[1,2,4]triazol-3-ylmethyl)-3,4-dichlorobenzamide], the half-maximal inhibitory concentration (IC50) in assay [1] (setting [3]) was 7.5 nM; at CCK-B receptor (Brain), over 1000 nM.

Turning to `CCc1cc(C(=O)c2ccccc2Cl)c(-n2c(C)nnc2CNC(=O)c2ccc(Cl)cc2N)s1` [Example 338, 2-amino-4-chloro-N-(4-(3-(2-chlorobenzoyl)-5-ethylthiophen-2-yl)-5-methyl[1,2,4]triazol-3-ylmethyl)benzamide], the IC50 is 7.6 nM in assay [1] (setting [3]) and over 1000 nM at CCK-B receptor (Brain).

For `CCc1cc(C(=O)c2ccccc2Cl)c(-n2c(C)nnc2CNC(=O)c2cc3ccccc3[nH]2)s1` [Example 14, N-(4-(3-(2-chlorobenzoyl)-5-ethylthiophen-2-yl)-5-methyl[1,2,4]triazol-3-ylmethyl)indole-2-carboxamide], the 50% inhibitory concentration (IC50) in assay [1] (setting [3]) is 3.7 nM; at CCK-B receptor (Brain) it was over 1000 nM.

Values taken from US5760032A, “Thienylazole compound and thienotriazolodiazepine compound” (Yoshitomi Pharmaceutical Industries, Ltd., priority 1994, dated 1998).
